Data on six compounds can be found in paper PMC11073699, “Odorant receptors for floral- and plant-derived volatiles in the yellow fever mosquito, Aedes aegypti (Diptera: Culicidae)” (PLOS ONE, 2024).

Molecules are shown by their SMILES. “And” between values parts separate entries of the source, which are not always exact repeats. Equal entries are not always repeated.

In one experiment the target is T1, AaegOR6 (Aedes aegypti, UniProt A0A1S4G757).
T1 sequence (A0A1S4G757 1-398): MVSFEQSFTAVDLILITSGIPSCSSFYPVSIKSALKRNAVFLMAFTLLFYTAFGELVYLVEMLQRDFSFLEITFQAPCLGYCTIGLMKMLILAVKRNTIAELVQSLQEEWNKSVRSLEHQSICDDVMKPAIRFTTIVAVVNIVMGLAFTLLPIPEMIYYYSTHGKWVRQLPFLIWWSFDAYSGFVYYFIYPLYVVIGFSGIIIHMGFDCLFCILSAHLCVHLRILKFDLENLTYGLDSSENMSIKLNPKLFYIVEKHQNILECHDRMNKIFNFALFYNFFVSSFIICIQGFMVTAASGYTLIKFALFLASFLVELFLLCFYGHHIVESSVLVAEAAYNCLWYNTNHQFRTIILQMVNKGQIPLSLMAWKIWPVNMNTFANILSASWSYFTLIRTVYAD
T1 sequence (Q178U6 1-478 partner): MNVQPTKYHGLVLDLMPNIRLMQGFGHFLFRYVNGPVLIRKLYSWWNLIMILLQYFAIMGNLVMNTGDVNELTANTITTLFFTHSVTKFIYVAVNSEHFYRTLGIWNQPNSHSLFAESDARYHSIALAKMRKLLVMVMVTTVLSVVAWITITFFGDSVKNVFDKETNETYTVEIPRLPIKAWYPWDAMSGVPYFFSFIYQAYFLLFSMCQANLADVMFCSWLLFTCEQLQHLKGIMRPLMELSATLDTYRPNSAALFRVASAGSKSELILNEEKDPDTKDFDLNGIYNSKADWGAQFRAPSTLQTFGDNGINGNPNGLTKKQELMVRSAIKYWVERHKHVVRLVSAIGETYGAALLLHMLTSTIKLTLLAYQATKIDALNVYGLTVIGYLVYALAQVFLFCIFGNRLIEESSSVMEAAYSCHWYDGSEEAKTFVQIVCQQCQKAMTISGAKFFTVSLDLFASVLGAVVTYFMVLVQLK
Description: Two-electrode voltage clamp of Xenopus laevis oocytes expressing AaegOR6/Orco (blends, unitary compounds, concentration-response). Format: cell-based. As to conditions: for Raw data (Responses in nA) Oocyte 1 / Raw data (Responses in nA) Oocyte 2 / Raw data (Responses in nA) Oocyte 3 / Raw data (Responses in nA) Oocyte 4 / Raw data (Responses in nA) Oocyte 5 / Raw data (Responses in nA) Oocyte 6 / Raw data (Responses in nA) Oocyte 7 / Raw data (Responses in nA) Oocyte 8: Indoles 2 unitary compounds. The text has this:
(§1) The coding regions of ten AaegOR genes of interest (S3 File) and AaegOrco were synthesized by Twist Bioscience (San Francisco, CA, USA) and cloned into the pENTR plasmid. The Gateway LR directional cloning system (Invitrogen Corp., Carlsbad, CA, USA) was utilized to subclone AaegOR coding regions into the pSP64t-RFA oocyte expression plasmid. Plasmids were purified using the GeneJet Plasmid Miniprep Kit (ThermoFisher Scientific, Waltham, MA, USA). Purified plasmids were sequenced in both directions to confirm coding regions.
(§2) Chemical compounds (S6 File) used in the deorphanization of AaegORs were purchased from Acros Organics (Morris, NJ, USA), Alfa Aesar (Ward Hill, MA, USA), and ThermoFisher Scientific (Waltham, MA, USA) at the highest purity available. Compounds were stored as 1M stocks in 100% DMSO. Serial dilutions of each compound were prepared in 10% DMSO and blended by chemical class.
(§3) pSP64t-RFA: AaegOR clones were linearized using Xbal, and cRNAs were synthesized using the mMESSAGE mMACHINE ® SP6 kit (Life Technologies, Carlsbad, CA, USA). Xenopus laevis stage V-VII oocytes purchased from Xenopus1 (Dexter, MI, USA) were stored at 18°C in Incubation medium (ND96 96 with 5% dialyzed horse serum, 50μg/mL gentamycin, 100μg/mL streptomycin, 100μg/mL penicillin, and 550μg/mL sodium pyruvate). 30nL of cRNA was injected into multiple oocytes using a microinjection syringe pump (World Precision Instruments, Sarasota, FL, USA) maintained at 18°C for 48–72 hrs. Odorant blends were perfused across individual oocytes for 10–15 seconds, held at a resting membrane potential of -80 mV using an OC-725C oocyte clamp (Warner Instruments, LLC, Hamden, CT, USA). Induced currents were measured indirectly using the two-electrode voltage clamp technique (TEVC). Following each stimulus, currents were allowed to return to baseline before further stimulation. Data was captured using the Digidata 1550 B digitizer and PClamp10 software (Molecular Devices, San Jose, CA, USA). Concentration-response curves were generated by perfusing unitary odorants over oocytes at increasing concentrations from [10^-3M] to [10^-9M]. Data were analyzed using GraphPad Prism 8 (GraphPad Software Inc., La Jolla, CA, USA). At least two biological replicates were conducted at each concentration and for each compound. Data for at least seven oocytes responding to each compound was analyzed (S7 File).

A further experiment deals with T2, AaegOR71 (Aedes aegypti, UniProt A0A3S7SHD4).
T2 sequence (A0A3S7SHD4 1-415): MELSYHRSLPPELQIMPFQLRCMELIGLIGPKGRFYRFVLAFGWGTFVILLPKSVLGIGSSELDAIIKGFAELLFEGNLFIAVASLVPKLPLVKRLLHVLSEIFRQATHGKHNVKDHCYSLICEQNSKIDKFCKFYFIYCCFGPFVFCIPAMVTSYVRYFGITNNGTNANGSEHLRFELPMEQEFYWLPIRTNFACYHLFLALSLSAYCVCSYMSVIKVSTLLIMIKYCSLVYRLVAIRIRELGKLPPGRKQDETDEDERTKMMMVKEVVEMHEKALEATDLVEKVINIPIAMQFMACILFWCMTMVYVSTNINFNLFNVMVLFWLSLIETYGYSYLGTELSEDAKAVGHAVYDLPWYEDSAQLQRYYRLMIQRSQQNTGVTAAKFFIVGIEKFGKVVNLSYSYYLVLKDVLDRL
T2 sequence (Q178U6 1-478 partner): T1 sequence (Q178U6 1-478 partner)
Kind of experiment: Two-electrode voltage clamp of Xenopus laevis oocytes expressing AaegOR71/Orco (blends, unitary compounds, concentration-response). Type of experiment: cell-based. As to conditions: Indoles 2 unitary compounds.
Excerpt: as §1, §2, §3

As to `O=C1Nc2ccccc2C1=O` [Isatin], on AaegOR6, the “Raw data (Responses in nA) Oocyte 1” value is recorded as 0.0 nA, the “Raw data (Responses in nA) Oocyte 2” value is listed as 0.0 nA, the “Raw data (Responses in nA) Oocyte 3” value was determined as 10.0 nA and the “Raw data (Responses in nA) Oocyte 4” value is listed as 0.0 nA. In addition, at AaegOR6, the “Raw data (Responses in nA) Oocyte 5” value came out at 0.0 nA, the “Raw data (Responses in nA) Oocyte 6” value amounted to 0.0 nA, the “Raw data (Responses in nA) Oocyte 7” value turned out to be 0.0 nA and the “Raw data (Responses in nA) Oocyte 8” value came out at 0.0 nA. On AaegOR71, the “Raw Data (Response in nA) Oocyte 1” value is recorded as 150 nA, the “Raw Data (Response in nA) Oocyte 2” value came out at 0 nA, the “Raw Data (Response in nA) Oocyte 3” value came to 0 nA and the “Raw Data (Response in nA) Oocyte 4” value is 0 nA. Moreover, at AaegOR71, the “Raw Data (Response in nA) Oocyte 5” value was 0 nA, the “Raw Data (Response in nA) Oocyte 6” value came out at 0 nA, the “Raw Data (Response in nA) Oocyte 7” value was 10 nA and the “Raw Data (Response in nA) Oocyte 8” value stood at 0 nA.

Consider `c1ccc2ncccc2c1` [Quinoline], for which, on AaegOR6, the “Raw data (Responses in nA) Oocyte 1” value is given as 0.0 nA, the “Raw data (Responses in nA) Oocyte 2” value was 0.0 nA, the “Raw data (Responses in nA) Oocyte 3” value was found to be 0.0 nA and the “Raw data (Responses in nA) Oocyte 4” value amounted to 0.0 nA. Besides, on AaegOR6, the “Raw data (Responses in nA) Oocyte 5” value stood at 0.0 nA, the “Raw data (Responses in nA) Oocyte 6” value came out at 10.0 nA, the “Raw data (Responses in nA) Oocyte 7” value is 10.0 nA and the “Raw data (Responses in nA) Oocyte 8” value is given as 0.0 nA. Moreover, on AaegOR71, the “Raw Data (Response in nA) Oocyte 1” value was 900 nA, the “Raw Data (Response in nA) Oocyte 2” value is 2210 nA, the “Raw Data (Response in nA) Oocyte 3” value is 330 nA and the “Raw Data (Response in nA) Oocyte 4” value worked out at 1050 nA. On AaegOR71, the “Raw Data (Response in nA) Oocyte 5” value came to 300 nA, the “Raw Data (Response in nA) Oocyte 6” value was 760 nA, the “Raw Data (Response in nA) Oocyte 7” value turned out to be 210 nA and the “Raw Data (Response in nA) Oocyte 8” value was 250 nA.

As to `O=C1CCOc2ccccc21` [4-chromanone, 4-Chromanone], on AaegOR6 (AaegOR6/Orco expressing oocytes, TEVC, concentration-response of normalized current), the EC50 was ~6.84 µM and 6.84 µM. For the same compound, at AaegOR6, the “Raw data (Responses in nA) Oocyte 1” value stood at 70.0 nA, the “Raw data (Responses in nA) Oocyte 2” value is 50.0 nA, the “Raw data (Responses in nA) Oocyte 3” value was found to be 90.0 nA and the “Raw data (Responses in nA) Oocyte 4” value was found to be 170.0 nA. At AaegOR6, the “Raw data (Responses in nA) Oocyte 5” value is given as 70.0 nA, the “Raw data (Responses in nA) Oocyte 6” value is on record as 650.0 nA, the “Raw data (Responses in nA) Oocyte 7” value was 510.0 nA and the “Raw data (Responses in nA) Oocyte 8” value amounted to 510.0 nA. At AaegOR71, the “Raw Data (Response in nA) Oocyte 1” value is on record as 0 nA, the “Raw Data (Response in nA) Oocyte 2” value came out at 310 nA, the “Raw Data (Response in nA) Oocyte 3” value amounted to 15 nA and the “Raw Data (Response in nA) Oocyte 4” value is 140 nA. At AaegOR71, the “Raw Data (Response in nA) Oocyte 5” value is recorded as 15 nA, the “Raw Data (Response in nA) Oocyte 6” value came to 60 nA, the “Raw Data (Response in nA) Oocyte 7” value was 30 nA and the “Raw Data (Response in nA) Oocyte 8” value is given as 20 nA.

Regarding `c1ccc2ncncc2c1` [Quinazoline], on AaegOR6, the “Raw data (Responses in nA) Oocyte 1” value turned out to be 0.0 nA, the “Raw data (Responses in nA) Oocyte 2” value worked out at 0.0 nA, the “Raw data (Responses in nA) Oocyte 3” value stood at 0.0 nA and the “Raw data (Responses in nA) Oocyte 4” value was determined as 0.0 nA. For the same compound, on AaegOR6, the “Raw data (Responses in nA) Oocyte 5” value worked out at 0.0 nA, the “Raw data (Responses in nA) Oocyte 6” value is 10.0 nA, the “Raw data (Responses in nA) Oocyte 7” value was determined as 0.0 nA and the “Raw data (Responses in nA) Oocyte 8” value is 0.0 nA. Further, at AaegOR71, the “Raw Data (Response in nA) Oocyte 1” value stood at 70 nA, the “Raw Data (Response in nA) Oocyte 2” value is reported as 440 nA, the “Raw Data (Response in nA) Oocyte 3” value is reported as 45 nA and the “Raw Data (Response in nA) Oocyte 4” value is reported as 250 nA. In addition, at AaegOR71, the “Raw Data (Response in nA) Oocyte 5” value is reported as 40 nA, the “Raw Data (Response in nA) Oocyte 6” value came out at 150 nA, the “Raw Data (Response in nA) Oocyte 7” value stood at 50 nA and the “Raw Data (Response in nA) Oocyte 8” value was 40 nA.

For the compound `O=C(O)Cc1c[nH]c2ccccc12` [1H-Indole-3-acetic acid], at AaegOR6, the “Raw data (Responses in nA) Oocyte 1” value is recorded as 10.0 nA, the “Raw data (Responses in nA) Oocyte 2” value is on record as 10.0 nA, the “Raw data (Responses in nA) Oocyte 3” value was found to be 10.0 nA and the “Raw data (Responses in nA) Oocyte 4” value is listed as 0.0 nA. Also, on AaegOR6, the “Raw data (Responses in nA) Oocyte 5” value came out at 10.0 nA, the “Raw data (Responses in nA) Oocyte 6” value was found to be 0.0 nA, the “Raw data (Responses in nA) Oocyte 7” value is on record as 0.0 nA and the “Raw data (Responses in nA) Oocyte 8” value amounted to 0.0 nA. At AaegOR71, the “Raw Data (Response in nA) Oocyte 1” value came out at 0 nA, the “Raw Data (Response in nA) Oocyte 2” value was determined as 20 nA, the “Raw Data (Response in nA) Oocyte 3” value worked out at 0 nA and the “Raw Data (Response in nA) Oocyte 4” value is reported as 15 nA. At AaegOR71, the “Raw Data (Response in nA) Oocyte 5” value is listed as 20 nA, the “Raw Data (Response in nA) Oocyte 6” value amounted to 60 nA, the “Raw Data (Response in nA) Oocyte 7” value was found to be 15 nA and the “Raw Data (Response in nA) Oocyte 8” value was 60 nA.

`Oc1cccc2[nH]ccc12` [4-Hydroxyindole]: at AaegOR6, the “Raw data (Responses in nA) Oocyte 1” value is given as 0.0 nA, the “Raw data (Responses in nA) Oocyte 2” value is reported as 0.0 nA, the “Raw data (Responses in nA) Oocyte 3” value is recorded as 5.0 nA and the “Raw data (Responses in nA) Oocyte 4” value is given as 0.0 nA. On AaegOR6, the “Raw data (Responses in nA) Oocyte 5” value is recorded as 0.0 nA, the “Raw data (Responses in nA) Oocyte 6” value was 0.0 nA, the “Raw data (Responses in nA) Oocyte 7” value is listed as 0.0 nA and the “Raw data (Responses in nA) Oocyte 8” value worked out at 0.0 nA. For the same compound, on AaegOR71, the “Raw Data (Response in nA) Oocyte 1” value is reported as 20 nA, the “Raw Data (Response in nA) Oocyte 2” value is given as 30 nA, the “Raw Data (Response in nA) Oocyte 3” value is reported as 0 nA and the “Raw Data (Response in nA) Oocyte 4” value is listed as 30 nA. Moreover, at AaegOR71, the “Raw Data (Response in nA) Oocyte 5” value is recorded as 0 nA, the “Raw Data (Response in nA) Oocyte 6” value was 30 nA, the “Raw Data (Response in nA) Oocyte 7” value was 30 nA and the “Raw Data (Response in nA) Oocyte 8” value is 10 nA.
